Data as given in article PMC4775225, “Bromodomain inhibition of the transcriptional coactivators CBP/EP300 as a therapeutic strategy to target the IRF4 network in multiple myeloma” (eLife, 2016).

Columns and labels:
LP-1 = assay: Viability, resazurin, 6 days; assay type: cell-based, human; conditions: for GI50: Homo sapiens, 144 h, LP-1, myeloma, 6 days
Experimental: (§1) Cells were plated at 5000–10000 cells per well of 96-well plates containing titrations of the compounds as indicated. After incubation, the cells were incubated with 500 μg/ml resazurin (Sigma) in PBS for 2–8 hr, and fluorescence was measured (Ex 530 nm, Em 590 nm). Cell cycle analysis was performed as described previously ([Mertz et al., 2011]). For visualization, DNA content histograms were generated with GraphPad Prism. Dose-response curves were generated by plotting the normalized percent growth, percent sub-G1 and percent increase in G0/G1 at each dose values. GI50 values were determined as the concentration at which viability was 50% of the DMSO value and calculated by a four-parameter non-linear regression model in GraphPad Prism.

KMM-1 = assay: Viability, resazurin, 6 days; assay type: cell-based, human; conditions: for GI50: Homo sapiens, 144 h, KMM-1, myeloma, 6 days
Experimental: as §1

OPM2 = assay: Viability, resazurin, 6 days; assay type: cell-based, human; conditions: for GI50: Homo sapiens, OPM-2, 144 h, OPM2, myeloma, 6 days
Experimental: as §1

RS4;11 = assay: Viability, resazurin, 6 days; assay type: cell-based, human; conditions: for GI50: Homo sapiens, 144 h, RS4;11, ALL, 6 days
Experimental: as §1

KMS28BM = assay: Viability, resazurin, 6 days; assay type: cell-based, human; conditions: for GI50: Homo sapiens, KMS-28BM, 144 h, myeloma, 6 days
Experimental: as §1

AMO-1 = assay: Viability, resazurin, 6 days; assay type: cell-based, human; conditions: for GI50: Homo sapiens, AMO1, 144 h, AMO-1, myeloma, 6 days
Experimental: as §1

MOLP-8 = assay: Viability, resazurin, 6 days; assay type: cell-based, human; conditions: for GI50: Homo sapiens, 144 h, MOLP-8, myeloma, 6 days
Experimental: as §1

RPMI-8226 = assay: Viability, resazurin, 6 days; assay type: cell-based, human; conditions: for GI50: Homo sapiens, 144 h, RPMI-8226, myeloma, 6 days
Experimental: as §1

NCI-H929 = assay: Viability, resazurin, 6 days; assay type: cell-based, human; conditions: for GI50: Homo sapiens, 144 h, NCI-H929, myeloma, 6 days
Experimental: as §1

K562 = assay: Viability, resazurin, 6 days; assay type: cell-based; conditions: Homo sapiens, 144 h, K562, CML
Experimental: as §1

MN-60 = assay: Viability, resazurin, 6 days; assay type: cell-based; conditions: Homo sapiens, 144 h, MN-60, ALL
Experimental: as §1

KMS34 = assay: Viability, resazurin, 6 days; assay type: cell-based; conditions: Homo sapiens, KMS-34, 144 h, KMS34, myeloma
Experimental: as §1

Kasumi-1 = assay: Viability, resazurin, 6 days; assay type: cell-based; conditions: Homo sapiens, 144 h, Kasumi-1, AML
Experimental: as §1

OCI-AML-5 = assay: Viability, resazurin, 6 days; assay type: cell-based; conditions: Homo sapiens, 144 h, OCI-AML-5, AML
Experimental: as §1

SD-1 = assay: Viability, resazurin, 6 days; assay type: cell-based; conditions: Homo sapiens, 144 h, SD-1, ALL
Experimental: as §1

KMS20 = assay: Viability, resazurin, 6 days; assay type: cell-based; conditions: Homo sapiens, KMS-20, 144 h, KMS20, myeloma
Experimental: as §1

Kasumi-2 = assay: Viability, resazurin, 6 days; assay type: cell-based; conditions: Homo sapiens, 144 h, Kasumi-2, AML
Experimental: as §1

SKM-1 = assay: Viability, resazurin, 6 days; assay type: cell-based; conditions: Homo sapiens, 144 h, SKM-1, AML
Experimental: as §1

SET2 = assay: Viability, resazurin, 6 days; assay type: cell-based; conditions: Homo sapiens, SET-2, 144 h, SET2 D6, AML
Experimental: as §1

ML2 = assay: Viability, resazurin, 6 days; assay type: cell-based; conditions: Homo sapiens, ML-2, 144 h, ML2, AML
Experimental: as §1

ROS 50 = assay: Viability, resazurin, 6 days; assay type: cell-based; conditions: Homo sapiens, 144 h, ROS 50, ALL
Experimental: as §1

NB4 = assay: Viability, resazurin, 6 days; assay type: cell-based; conditions: Homo sapiens, NB-4, 144 h, NB4, APL
Experimental: as §1

EJM = assay: Viability, resazurin, 6 days; assay type: cell-based; conditions: Homo sapiens, 144 h, myeloma
Experimental: as §1

KMS-11 = assay: Viability, resazurin, 6 days; assay type: cell-based; conditions: Homo sapiens, 144 h, KMS-11, myeloma
Experimental: as §1

THP-1 = assay: Viability, resazurin, 6 days; assay type: cell-based; conditions: Homo sapiens, 144 h, THP-1, AML
Experimental: as §1

REH = assay: Viability, resazurin, 6 days; assay type: cell-based; conditions: Homo sapiens, 144 h, ALL
Experimental: as §1

VAL = assay: Viability, resazurin, 6 days; assay type: cell-based; conditions: Homo sapiens, 144 h, ALL
Experimental: as §1

KMS21BM = assay: Viability, resazurin, 6 days; assay type: cell-based; conditions: Homo sapiens, KMS-21BM, 144 h, myeloma
Experimental: as §1

380 = assay: Viability, resazurin, 6 days; assay type: cell-based; conditions: Homo sapiens, 144 h, 380, ALL
Experimental: as §1

PL21 = assay: Viability, resazurin, 6 days; assay type: cell-based; conditions: Homo sapiens, PL-21, 144 h, PL21, APL
Experimental: as §1

WDR9 bromodomain = assay: Differential scanning fluorimetry; assay type: binding; conditions: WDR9 4–8 μM, compound 20 μM
Experimental: (§2) Variable buffer compositions were used for the different bromodomain proteins with 12X SYPRO orange dye, 20 μM of the compounds or equivalent percentage of DMSO, and 4–8 µM of the indicated protein. […] The melting temperature (Tm) for each sample was determined using the ViiA7 software (version 1.2.2) and the ΔTm was calculated by subtracting the Tm of the control from the Tm of the compound treated sample.

BRD8 bromodomain = assay: Differential scanning fluorimetry; assay type: binding; conditions: BRD8 4–8 μM, compound 20 μM
Experimental: as §2

BRG1 bromodomain = biological target: T1, BRG1 bromodomain (Homo sapiens, UniProt P51532); assay: Differential scanning fluorimetry; assay type: binding; conditions: BRG1 4–8 μM, compound 20 μM; read-out: DTm
T1 construct: Differential scanning fluorimetry was carried out with the indicated isolated bromodomains at 4–8 μM
Experimental: as §2

BRPF1 bromodomain = biological target: T2, BRPF1 bromodomain (Homo sapiens, UniProt P55201); assay: Differential scanning fluorimetry; assay type: binding; conditions: BRPF1 4–8 μM, compound 20 μM; read-out: DTm
T2 construct: Differential scanning fluorimetry was carried out with the indicated isolated bromodomains at 4–8 μM
Experimental: as §2

T2 sequence (P55201 628-732 limits assumed): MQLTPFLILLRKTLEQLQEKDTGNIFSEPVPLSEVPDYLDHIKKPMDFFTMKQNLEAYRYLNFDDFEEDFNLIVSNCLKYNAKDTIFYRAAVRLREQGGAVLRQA
T1 sequence (P51532 1453-1564 limits assumed): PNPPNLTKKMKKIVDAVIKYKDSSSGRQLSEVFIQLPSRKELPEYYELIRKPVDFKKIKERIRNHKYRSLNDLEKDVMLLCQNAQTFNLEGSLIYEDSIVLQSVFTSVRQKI

For `CCC(=O)N1CCOc2c(cc(-c3ccc(OC)c(OC)c3)cc2OC[C@H]2CCCN(C)C2)C1` [I-CBP112], the GI50 (LP-1) was 1.51 µM, the GI50 (KMM-1) was greater than 20 µM and the GI50 (OPM2) was 2.82 µM. For the same molecule, the GI50 (RS4;11) was 15.6 µM, the GI50 (KMS28BM) was 4.44 µM and the GI50 (AMO-1) was 9.39 µM. It also gave a GI50 (MOLP-8) of 3.52 µM, a GI50 (RPMI-8226) of 14.6 µM and a GI50 (NCI-H929) of 3.8 µM. For the same molecule, the GI50 (K562) was greater than 20 µM, the GI50 (MN-60) was greater than 20 µM and the GI50 (KMS34) was 2.53 µM. The GI50 (Kasumi-1) was 3.22 µM, the GI50 (OCI-AML-5) was greater than 20 µM and the GI50 (SD-1) was 13.5 µM. For the same molecule, the GI50 (KMS20) was 2.97 µM, the GI50 (Kasumi-2) was 8.12 µM and the GI50 (SKM-1) was 15.9 µM. For the same molecule, the GI50 (SET2) was 12.6 µM, the GI50 (ML2) was greater than 20 µM and the GI50 (ROS 50) was greater than 20 µM. For the same molecule, the GI50 (NB4) was 17.8 µM, the GI50 (EJM) was 14.6 µM and the GI50 (KMS-11) was 16.3 µM. It also gave a GI50 (THP-1) of 5.35 µM, a GI50 (REH) greater than 20 µM and a GI50 (VAL) of 14.2 µM. The GI50 (KMS21BM) was 3.26 µM, the GI50 380 was greater than 20 µM and the GI50 (PL21) was greater than 20 µM. It also gave a DTm (WDR9 bromodomain) of 0.04 °C, a DTm (BRD8 bromodomain) of 0.88 °C and a ΔTm at 20 µM (BRG1 bromodomain) of 0.38 °C. For the same molecule, the ΔTm at 20 µM (BRPF1 bromodomain) was 0.11 °C.

In the case of `COc1ccc(CCc2nc3cc(-c4c(C)noc4C)ccc3n2C[C@H](C)N2CCOCC2)cc1Cl` [SGC-CBP30], the GI50 (LP-1) is reported as 0.78 µM, the log2GI50 (LP-1; LP1) is reported as -0.36 and the GI50 (KMM-1) is reported as 11.7 µM. For the same molecule, the log2GI50 (KMM-1; KMM1) was 3.54, the GI50 (OPM2) was 1.53 µM and the log2GI50 (OPM2; OPM2) was 0.61. The GI50 (RS4;11) was 9.99 µM, the log2GI50 (RS4;11; RS411) was 3.32 and the log2GI50 (KMS28BM) was 1.12. For the same molecule, the GI50 (KMS28BM) was 2.17 µM, the log2GI50 (AMO-1; AMO1) was 0.85 and the GI50 (AMO-1) was 1.8 µM. For the same molecule, the GI50 (MOLP-8) was 2.06 µM, the log2GI50 (MOLP-8; MOLP8) was 1.04 and the GI50 (RPMI-8226) was 3.44 µM. For the same molecule, the log2GI50 (RPMI-8226; RPMI8226) was 1.78, the log2GI50 (NCI-H929; H929) was 0.75 and the GI50 (NCI-H929) was 1.68 µM. For the same molecule, the GI50 (K562) was 8.86 µM, the GI50 (MN-60) was 12.3 µM and the GI50 (KMS34) was 1.3 µM. The GI50 (Kasumi-1) was 1.95 µM, the GI50 (OCI-AML-5) was greater than 20 µM and the GI50 (SD-1) was 7.28 µM. The GI50 (KMS20) was 1.05 µM, the GI50 (Kasumi-2) was 3.77 µM and the GI50 (SKM-1) was 6.61 µM. It also gave a GI50 (SET2) of 4.47 µM, a GI50 (ML2) of 6.65 µM and a GI50 (ROS 50) of 16.4 µM. For the same molecule, the GI50 (NB4) was 3.93 µM, the GI50 (EJM) was 3.87 µM and the GI50 (KMS-11) was 2.41 µM. For the same molecule, the GI50 (THP-1) was 2.85 µM, the GI50 (REH) was 18.5 µM and the GI50 (VAL) was 7.54 µM. It also gave a GI50 (KMS21BM) of 1.27 µM, a GI50 380 of 15.6 µM and a GI50 (PL21) of 17 µM. The DTm (WDR9 bromodomain) was -0.08 °C, the DTm (BRD8 bromodomain) was 0.76 °C and the ΔTm at 20 µM (BRG1 bromodomain) was 0.27 °C. The ΔTm at 20 µM (BRPF1 bromodomain) was 0.11 °C.
